Measurements taken from patent US6352716B1, “Steroidal liposomes” (The Liposome Company Inc., priority 1984, dated 2002).
Values after ≈ are worked out from the molar mass of the structure shown. Where two headings read alike, the source gives them in different places. Blank lines part the entries; values can stand above or below the molecule they belong to.

Tests used:
[1] = type: physicochemical; conditions: arsenazo III 4.5 mM, buffer pH 7.3, 50-54 mg salt in 1 ml, MLVs washed three times
Protocol: (§1) The 2-amino-2-methyl-1,3-propanediol salt of cholesterol hemisuccinate (50 mg) was added to a 1 ml solution of arsenazo III (4.5 mM, final concentration) in 0.01 M 2-amino-2-methyl-1,3-propanediol-HCl (pH 7.3), 0.07 M KCl, 0.07 M NaCl. The suspension of CHS-MLVs was formed by mixing vortically with glass beads. The CHS-MLVs were pelleted by centrifugation at 10,000×g for 15 minutes, and the resulting pellet was washed three times as described in Section 6.1.1.
as §1, with “2-aminoethanol” for “2-amino-2-methyl-1,3-propanediol”, “2-aminoethanol-HCl” for “2-amino-2-methyl-1,3-propanediol-HCl”, “vertically” for “vortically”
The suspension of CHS-MLVs was formed by mixing vertically with glass beads. The CHS-MLVs were pelleted by centrifugation at 10,000×g for 15 minutes, and the resulting pellet was washed three times as described in Section 6.1.1.
as §1, with “triethanolamine” for “2-amino-2-methyl-1,3-propanediol”, “triethanolamine-HCL” for “2-amino-2-methyl-1,3-propanediol-HCl”

[2] = cited from earlier work
[3] = Entrapment of 3H-diazepam in sonicated CHS-SUVs; conditions: Diazepam 5 mg/ml
[4] = type: physicochemical
Protocol: CHS-MLVs were prepared as described in Section 6.2 using 25 mg tris-salt CHS in 1.0 ml 0.01 M Tris-HCl (pH 7.4), 0.14 M NaCl buffer. The CHS-MLV preparation was sonicated to clarify to form sonicated CHS-SUVs and then either 5, 10, 15, 25, 30 or 166 mg BGH (Eli Lilly & Co., Indianapolis, Ind.) was added to separate aliquots of the sonicated CHS-SUV suspension. The suspensions were extensively mixed vortically, resulting in partitioning of the protein into the CHS-SUV bilayers. The sonicated CHS-SUV suspensions were visually observed for the presence of precipitate at 1, 2, and 21 days.
CHS-MLVs were prepared as described in Section 6.2 using 25 mg tris-salt CHS in 1.0 ml 0.01 M Tris-HCl (pH 7.4), 0.14 M Nacl buffer. The CHS-MLV preparation was sonicated to clarity to form sonicated CHS-SUVs and up to 47 mg zinc-insulin powder (Boving Pancreatic Insulin, Sigma Chemical Co., St. Louis, Mo.) was added to the CHS-SUV suspension. The suspension was extensively mixed vortically, resulting in partitioning of the insulin into the CHS-SUV bilayers. The sonicatd CHS-SUVs were visually observed for the presence of precipitate at 1, 2, and 21 days. […] Insulin entrapment occurs more rapidly at 37° C.
Small unilamellar vesicles were prepared as follows: 100 mg tylosin-base (Eli Lilly & Co., Indianapolis, Ind.) and 200 mg tris-salt CHS were mixed vertically in 4 ml phosphate buffered saline (pH 7.4). […]

[5] = Retention of 125I-human growth hormone in the hind limb after intramuscular injection; set-up: species or system Swiss-Webster mice; conditions: mouse, in vivo
Protocol: A group of 12 female Swiss-Webster mice were injected intramuscularly in the hind limb with 0.5 ml of the CHS-MLV entrapped ^125I-HGH suspension. A control group of 12 mice were injected with 0.5 ml free ^125I-HGH in .01 M Tris-HCl, 0.14 M NaCl buffer. Each animal in both groups received approximately 35,000 cpm/animal. At periodic intervals post-injection, the mice were sacrificed, the hind limb dissected, and percent total radioactivity remaining was determined. […] Thus, when injected intramuscularly, the CHS-liposome entrapped drug is released in a sustained fashion.

Molecule: CC(C)CCC[C@@H](C)[C@H]1CC[C@H]2[C@@H]3CC=C4C[C@@H](OC(=O)CCC(=O)O)CC[C@]4(C)[C@H]3CC[C@]12C.CC(N)(CO)CO [2-amino-2-methyl-1,3-propanediol salt of cholesterol hemisuccinate]
entrapment of arsenazo III (colour of washed pellet) [1]: red in color indicating entrapment of the arsenazo III

Molecule: CC(C)CCC[C@@H](C)[C@H]1CC[C@H]2[C@@H]3CC=C4C[C@@H](OC(=O)CCC(=O)O)CC[C@]4(C)[C@H]3CC[C@]12C.NCCO [2-aminoethanol salt of cholesterol hemisuccinate]
entrapment of arsenazo III (colour of washed pellet) [1]: red in color indicating entrapment of the arsenazo III

Molecule: COc1ccc2c(c1)c(CC(=O)O)c(C)n2C(=O)c1ccc(Cl)cc1 [Indomethacin]
solubility in water [2]: practically insoluble in water

Molecule: CC(C)CCC[C@@H](C)[C@H]1CC[C@H]2[C@@H]3CC=C4C[C@@H](OC(=O)CCC(=O)O)CC[C@]4(C)[C@H]3CC[C@]12C.NC(CO)(CO)CO [Tris-salt CHS, tris(hydroxymethyl)aminomethane salt of cholesteryl hemisuccinate]
% 3H-Diazepam Entrapped ([3]; CHS 100 mg/ml): 100% | % 3H-Diazepam Entrapped ([3]; CHS 200 mg/ml): 100% | entrapment of arsenazo III (colour of washed pellet) [1]: red in color indicating entrapment of the arsenazo III

precipitate formation (visual comparison) ([4]; 100 mg tylosin base in 4 ml: CHS-SUV supernatant versus suspension in water): A precipitate formed
Molecule: CC[C@H]1OC(=O)C[C@@H](O)[C@H](C)[C@@H](O[C@@H]2O[C@H](C)[C@@H](O[C@H]3C[C@@](C)(O)[C@@H](O)[C@H](C)O3)[C@H](N(C)C)[C@H]2O)[C@@H](CC=O)C[C@@H](C)C(=O)/C=C/C(C)=C/[C@@H]1CO[C@@H]1O[C@H](C)[C@@H](O)[C@@H](OC)[C@H]1OC [Tylosin, reference compound]
solubility in water ([2]; 25° C.): 5000 µg/mL (≈ 5.46 mM)

Molecule: CC(C)CCCC(C)C1CCC2C3CC=C4CC(OC(=O)CCC(=O)O)CCC4(C)C3CCC12C.OCCN(CCO)CCO (stereo not drawn) [triethanolamine salt of cholesterol hemisuccinate]
entrapment of arsenazo III (colour of washed pellet) [1]: red in color indicating entrapment of the arsenazo III

Molecule: Zinc-insulin: a polypeptide hormone; zinc-insulin powder, bovine pancreatic insulin from Sigma
solubility in aqueous phases ([2]; pH 4.5): practically insoluble

Molecule: ^125I-HGH: free 125I-labelled human growth hormone in 0.01M Tris-HCl, 0.14M NaCl
% Radioactivity Remaining in Limb ([5]; 3 h): 5% | % Radioactivity Remaining in Limb ([5]; 24 h): 0.7% | % Radioactivity Remaining in Limb ([5]; 72 h): 0.2% | % Radioactivity Remaining in Limb ([5]; 168 h): 0.3%

B1: BGH: a simple protein composed of a single chain of approximately 191 amino acids (protein, UniProt P01246 27-217, looked up)
Somatotropin: AFPAMSLSGLFANAVLRAQHLHQLAADTFKEFERTYIPEGQRYSIQNTQVAFCFSETIPAPTGKNEAQQKSDLELLRISLLLIQSWLGPLQFLSRVFTNSLVFGTSDRVYEKLKDLEEGILALMRELEDGTPRAGQILKQTYDKFDTNMRSDDALLKNYGLLSCFRKDLHKTETYLRVMKCRRFGEASCAF
presence of precipitate at 1, 2, and 21 days ([4]; 5-166 mg BGH added to sonicated CHS-SUVs (25 mg tris-salt CHS in 1.0 ml), room temperature): No precipitate was observed
